Measured values reported in paper PMC12518996 (Frontiers in Pharmacology, 2025).
pIC50: −log10 of the molar value.

Experiments:
CYP1A2 [1] = biological target: T1, CYP1A2 (Homo sapiens, UniProt P05177); test: Metabolite formation by recombinant human CYP1A2; format: in vitro ADME; conditions: trazodone 4 μM; NADPH; 37 °C, 40 min
T1 sequence (P05177 1-516): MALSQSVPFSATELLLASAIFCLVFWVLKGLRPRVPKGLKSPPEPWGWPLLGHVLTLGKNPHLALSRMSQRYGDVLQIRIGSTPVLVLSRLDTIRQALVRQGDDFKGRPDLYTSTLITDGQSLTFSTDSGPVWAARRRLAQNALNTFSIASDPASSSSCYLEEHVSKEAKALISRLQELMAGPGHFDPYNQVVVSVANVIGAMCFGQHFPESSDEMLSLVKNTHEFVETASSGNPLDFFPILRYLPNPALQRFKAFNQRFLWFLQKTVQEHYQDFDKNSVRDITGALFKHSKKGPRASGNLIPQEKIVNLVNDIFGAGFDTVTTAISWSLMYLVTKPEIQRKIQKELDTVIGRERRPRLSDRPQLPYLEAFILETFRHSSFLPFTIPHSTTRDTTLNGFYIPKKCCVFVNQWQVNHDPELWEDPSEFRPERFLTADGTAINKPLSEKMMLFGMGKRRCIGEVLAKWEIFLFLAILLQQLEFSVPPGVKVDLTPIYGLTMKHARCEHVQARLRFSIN
Protocol: To confirm the role of individual CYP isoforms in metabolizing trazodone, recombinant human and rat CYP enzymes were employed in separate incubations. […] Each reaction was terminated with acetonitrile, centrifuged, and the supernatant was analyzed by identical UHPLC-Orbitrap setup outlined in §2.2, allowing direct comparison of metabolite spectra across all in-vitro systems. […] This procedure helped confirm the contributions of individual isoforms to specific biotransformation reactions.

CYP2E1 [2] = biological target: CYP2E1 (Homo sapiens, UniProt P05181); test: biochemical
Sequence of CYP2E1 (Homo sapiens, UniProt P05181) (P05181 whole entry): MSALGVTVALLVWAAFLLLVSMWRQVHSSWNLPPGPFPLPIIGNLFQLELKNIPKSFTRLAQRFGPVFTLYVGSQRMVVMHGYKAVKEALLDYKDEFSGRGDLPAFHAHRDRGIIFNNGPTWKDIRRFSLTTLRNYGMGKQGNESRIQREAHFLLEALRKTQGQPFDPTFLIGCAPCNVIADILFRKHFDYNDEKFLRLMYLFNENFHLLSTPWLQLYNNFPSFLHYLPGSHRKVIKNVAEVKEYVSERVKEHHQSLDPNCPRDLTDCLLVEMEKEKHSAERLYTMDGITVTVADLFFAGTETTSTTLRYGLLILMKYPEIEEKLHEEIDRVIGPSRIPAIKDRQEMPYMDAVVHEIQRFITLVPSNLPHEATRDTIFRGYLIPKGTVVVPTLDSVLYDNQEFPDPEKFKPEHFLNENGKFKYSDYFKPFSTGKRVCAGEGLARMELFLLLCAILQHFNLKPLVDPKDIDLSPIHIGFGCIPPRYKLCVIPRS

CYP1A2 [3] = biological target: T1, CYP1A2; conditions: human hepatocytes; probe phenacetin; 0.1-100 μM
CYP2A6 [4] = biological target: T2, CYP2A6 (Mus musculus, UniProt P20852); test: biochemical
T2 sequence (P20852 1-494): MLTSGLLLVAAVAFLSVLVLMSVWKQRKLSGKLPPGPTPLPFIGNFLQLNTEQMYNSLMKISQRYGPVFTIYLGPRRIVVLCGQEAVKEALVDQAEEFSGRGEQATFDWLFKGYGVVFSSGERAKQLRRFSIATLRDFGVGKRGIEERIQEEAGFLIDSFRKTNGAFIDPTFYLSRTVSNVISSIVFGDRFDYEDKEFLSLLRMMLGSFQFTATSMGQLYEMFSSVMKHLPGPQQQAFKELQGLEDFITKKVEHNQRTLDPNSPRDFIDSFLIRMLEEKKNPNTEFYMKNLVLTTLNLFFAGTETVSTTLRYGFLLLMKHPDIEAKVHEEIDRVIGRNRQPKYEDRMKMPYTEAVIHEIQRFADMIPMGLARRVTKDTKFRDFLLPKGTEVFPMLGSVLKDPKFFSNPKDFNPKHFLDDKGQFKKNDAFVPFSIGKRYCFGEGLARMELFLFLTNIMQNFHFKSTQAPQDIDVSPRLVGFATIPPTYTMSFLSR

CYP3A4 = CYP3A4 (Homo sapiens, UniProt P08684); conditions: human hepatocytes; probe midazolam; 0.1-100 μM
Sequence of CYP3A4 (P08684 whole entry): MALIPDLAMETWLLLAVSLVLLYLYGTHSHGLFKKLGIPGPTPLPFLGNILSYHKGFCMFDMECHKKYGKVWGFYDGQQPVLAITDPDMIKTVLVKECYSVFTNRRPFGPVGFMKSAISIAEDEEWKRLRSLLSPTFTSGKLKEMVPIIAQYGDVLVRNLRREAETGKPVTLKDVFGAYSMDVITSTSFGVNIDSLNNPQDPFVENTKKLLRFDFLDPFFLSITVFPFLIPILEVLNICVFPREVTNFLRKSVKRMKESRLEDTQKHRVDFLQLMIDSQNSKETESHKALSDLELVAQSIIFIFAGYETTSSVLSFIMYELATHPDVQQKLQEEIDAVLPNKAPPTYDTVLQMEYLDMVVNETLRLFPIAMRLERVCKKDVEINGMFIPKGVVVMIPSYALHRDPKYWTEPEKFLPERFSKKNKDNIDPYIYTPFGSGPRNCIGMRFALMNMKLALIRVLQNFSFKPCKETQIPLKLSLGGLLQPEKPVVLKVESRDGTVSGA

CYP1A2 [5] = biological target: T1, CYP1A2; test: biochemical
CYP2E1 [6] = biological target: CYP2E1 (Mus musculus, UniProt Q05421); test: biochemical
Sequence of CYP2E1 (Mus musculus, UniProt Q05421) (Q05421 whole entry): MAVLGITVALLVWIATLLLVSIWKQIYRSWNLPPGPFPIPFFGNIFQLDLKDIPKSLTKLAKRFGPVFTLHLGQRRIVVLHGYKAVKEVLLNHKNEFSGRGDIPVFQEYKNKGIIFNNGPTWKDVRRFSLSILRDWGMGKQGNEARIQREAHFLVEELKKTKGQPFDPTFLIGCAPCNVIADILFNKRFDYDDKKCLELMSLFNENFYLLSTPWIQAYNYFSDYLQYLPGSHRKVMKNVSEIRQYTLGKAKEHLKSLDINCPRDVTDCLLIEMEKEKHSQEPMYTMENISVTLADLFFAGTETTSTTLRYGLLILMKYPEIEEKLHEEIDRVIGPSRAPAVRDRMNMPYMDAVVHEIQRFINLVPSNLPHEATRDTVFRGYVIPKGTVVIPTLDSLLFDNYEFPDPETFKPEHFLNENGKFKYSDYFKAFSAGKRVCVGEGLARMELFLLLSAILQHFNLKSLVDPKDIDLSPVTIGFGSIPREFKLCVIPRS

CYP2A6 [7] = biological target: T3, CYP2A6 (Homo sapiens, UniProt P11509); test: Inhibition of CYP2A6 in human hepatocytes (coumarin probe)
T3 sequence (P11509 1-494): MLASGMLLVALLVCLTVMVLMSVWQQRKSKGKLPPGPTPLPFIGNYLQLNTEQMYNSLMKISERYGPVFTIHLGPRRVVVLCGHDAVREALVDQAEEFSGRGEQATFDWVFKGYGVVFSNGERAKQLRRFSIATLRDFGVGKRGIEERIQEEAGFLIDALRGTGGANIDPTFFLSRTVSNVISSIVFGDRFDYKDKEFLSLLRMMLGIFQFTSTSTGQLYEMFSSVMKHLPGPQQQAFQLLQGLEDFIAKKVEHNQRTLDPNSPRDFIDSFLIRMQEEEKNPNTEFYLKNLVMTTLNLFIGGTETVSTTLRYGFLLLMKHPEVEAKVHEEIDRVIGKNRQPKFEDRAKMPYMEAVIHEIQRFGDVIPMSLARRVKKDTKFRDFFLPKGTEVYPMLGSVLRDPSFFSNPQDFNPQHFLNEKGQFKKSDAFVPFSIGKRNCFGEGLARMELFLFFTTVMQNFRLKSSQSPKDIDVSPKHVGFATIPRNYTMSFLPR

[8] = Metabolic profiling in rat plasma after oral trazodone; format: in vivo
Protocol: Following incubation, all reactions were terminated by adding an equal volume of cold acetonitrile to precipitate proteins. Samples were then centrifuged at 13,000 x g for 10 min, and the supernatants were transferred to 96-well plates for analysis.
Processed supernatants (4 µL) were injected onto a Thermo U3000 UHPLC system coupled to a Thermo Q-Exactive Orbitrap MS equipped with a PDA detector. […] The Orbitrap operated in positive ESI mode (sheath/aux/sweep N2 55/8/4 units; capillary 3.0 kV, 370 °C; auxiliary heater 550 °C) with full-scan m/z 100–1,000 at 35,000 FWHM (m/z 200) and DDI-MS/MS at 17,500 FWHM (7 Hz acquisition; IT […]; HCD 40 eV). External mass calibration and a 5 ppm extraction window were applied, and data were processed in Xcalibur 3.0.63/Compound Discoverer 1.0.

Row | Compound | Formation of trazodone phase I metabolite by recombinant human CYP1A2 (as LC/MS peak areas) (CYP1A2 [1]) | pIC50 (CYP2E1 [2]) | IC50 value (µM), CYP1A2 (CYP1A2 [3]) | pIC50 (CYP2A6 [4]) | IC50 value (µM), CYP3A4 (CYP3A4) | pIC50 (CYP1A2 [5]) | pIC50 (CYP2E1 [6]) | pIC50 (CYP2A6 [7]) | relative abundance (% of total LC-MS signal), Rat plasma 0.25h (%) ([8]; rat plasma 0.25 h after oral trazodone 30 mg/kg) | relative abundance (% of total LC-MS signal), Rat plasma 6h (%) ([8]; rat plasma 6 h after oral trazodone 30 mg/kg)
1 | Clc1cccc(N2CCNCC2)c1 [mCPP, m-chlorophenylpiperazine] | 266 | 5.19 | inactive | < 4.00 | inactive | < 4.00 | 5.73 | 4.53 |  | 
2 | O=c1n(CCCN2CCNCC2)nc2ccccn12 [Metabolite M15] |  |  |  |  |  |  |  |  | 0.1% | 0.1%
